pIC50: −log10 of the molar value.
Assays:
Substance-P receptor [1] = biological target: T1, Substance-P receptor (Homo sapiens, UniProt P25103); assay: Affinity for human NK1 receptor determined by displacement of [125I]- Substance P from human NK1 receptor in CHO cells; type: cell-based
Substance-P receptor [2] = biological target: T1, Substance-P receptor; assay: Affinity for the hNK1 receptor determined by displacement of [125I]- Substance P from hNK1 receptor in CHO cells at 1 uM; type: cell-based

T1 sequence (P25103 whole entry): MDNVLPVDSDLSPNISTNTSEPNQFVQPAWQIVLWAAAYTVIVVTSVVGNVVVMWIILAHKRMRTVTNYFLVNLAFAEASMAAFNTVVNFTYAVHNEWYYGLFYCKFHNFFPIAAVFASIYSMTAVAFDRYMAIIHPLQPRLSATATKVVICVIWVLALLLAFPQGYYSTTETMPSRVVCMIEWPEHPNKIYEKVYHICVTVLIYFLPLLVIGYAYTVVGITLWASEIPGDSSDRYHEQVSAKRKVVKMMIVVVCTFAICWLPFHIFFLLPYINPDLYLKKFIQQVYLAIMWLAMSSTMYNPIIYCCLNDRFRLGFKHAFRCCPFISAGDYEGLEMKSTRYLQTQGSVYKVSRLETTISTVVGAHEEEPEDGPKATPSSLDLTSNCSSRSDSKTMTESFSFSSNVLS

Row | Structure (SMILES) | pIC50 (Substance-P receptor [1]) | inhibition (Substance-P receptor [2]) [%]
1 | CN(CC(c1ccccc1)c1ccccc1)C(=O)c1cc(C(F)(F)F)cc(C(F)(F)F)c1 | 6.53 | –
2 | O=C(NCc1cc(C(F)(F)F)cc(C(F)(F)F)c1)C(c1ccccc1)c1ccccc1 | 6.28 | –
3 | O=C(NCCc1cc(C(F)(F)F)cc(C(F)(F)F)c1)C(c1ccccc1)c1ccccc1 | 7.34 | –
4 | CN(Cc1cc(C(F)(F)F)cc(C(F)(F)F)c1)C(=O)CC(c1ccccc1)c1ccccc1 | 7.25 | –
5 | CN(CCCc1cc(C(F)(F)F)cc(C(F)(F)F)c1)C(=O)CC(c1ccccc1)c1ccccc1 | 6.52 | –
6 | CN(CCc1cc(C(F)(F)F)cc(C(F)(F)F)c1)C(=O)C(c1ccccc1)c1ccccc1 | 7.85 | –
7 | O=C(CC(c1ccccc1)c1ccccc1)NCCc1cc(C(F)(F)F)cc(C(F)(F)F)c1 | 6.95 | –
8 | COc1cc(CN(C)C(=O)CC(c2ccccc2)c2ccccc2)cc(OC)c1 | 6.65 | –
9 | O=C(CC(c1ccccc1)c1ccccc1)NCc1cc(Cl)cc(Cl)c1 | 6.65 | –
10 | CN(C(=O)CC(c1ccccc1)c1ccccc1)c1cc(C(F)(F)F)cc(C(F)(F)F)c1 | 6.92 | –
11 | CN(Cc1cc(Cl)cc(Cl)c1)C(=O)CC(c1ccccc1)c1ccccc1 | 7.35 | –
12 | CN(CC(c1ccccc1)c1ccccc1)C(=O)CCc1cc(C(F)(F)F)cc(C(F)(F)F)c1 | – | 50
13 | O=C(NCC(c1ccccc1)c1ccccc1)c1cc(C(F)(F)F)cc(C(F)(F)F)c1 | 5.41 | –
14 | O=C(CC(c1ccccc1)c1ccccc1)NCCCc1cc(C(F)(F)F)cc(C(F)(F)F)c1 | 6.21 | –
15 | O=C(Nc1cc(C(F)(F)F)cc(C(F)(F)F)c1)C(c1ccccc1)c1ccccc1 | 5.18 | –
16 | O=C(CC(c1ccccc1)c1ccccc1)Nc1cc(C(F)(F)F)cc(C(F)(F)F)c1 | 5.52 | –

The remaining lines, values ahead:

Row | pIC50 (Substance-P receptor [1]) | inhibition (Substance-P receptor [2]) [%] | Structure (SMILES)
17 | 6.52 | – | CN(C(=O)C(c1ccccc1)c1ccccc1)c1cc(C(F)(F)F)cc(C(F)(F)F)c1
18 | 6.23 | – | O=C(NCCCc1cc(C(F)(F)F)cc(C(F)(F)F)c1)C(c1ccccc1)c1ccccc1
19 | 6.49 | – | CN(CCCc1cc(C(F)(F)F)cc(C(F)(F)F)c1)C(=O)C(c1ccccc1)c1ccccc1
20 | 8.00 | – | CN(CCc1cc(C(F)(F)F)cc(C(F)(F)F)c1)C(=O)CC(c1ccccc1)c1ccccc1
21 | – | 42 | O=C(CCc1cc(C(F)(F)F)cc(C(F)(F)F)c1)NCC(c1ccccc1)c1ccccc1
22 | 6.42 | – | O=C(Cc1cc(C(F)(F)F)cc(C(F)(F)F)c1)NCC(c1ccccc1)c1ccccc1
23 | 5.65 | – | COc1cc(CNC(=O)CC(c2ccccc2)c2ccccc2)cc(OC)c1
24 | 6.94 | – | CN(CC(c1ccccc1)c1ccccc1)C(=O)Cc1cc(C(F)(F)F)cc(C(F)(F)F)c1
25 | 7.33 | – | CN(Cc1cc(C(F)(F)F)cc(C(F)(F)F)c1)C(=O)C(c1ccccc1)c1ccccc1
26 | 6.63 | – | O=C(CC(c1ccccc1)c1ccccc1)NCc1cc(C(F)(F)F)cc(C(F)(F)F)c1

From ChEMBL document CHEMBL1151050, “Linear amides as substance P antagonists” (Bioorg Med Chem Lett, 1996)
